Here are results for two molecules from article PMC5928494 (ACS Omega, 2018).

The nature of one data set: in vitro. The settings on record: human.
Data set [1] deals with MX-1 (human breast cancer) cell line. The data set is described as follows: cells. Particulars: 72 h, read-out: Cytotoxicity IC50, MX-1.
Data set [2] deals with ID-8 (murine ovarian cancer) cell line. The data set is described as follows: cells. Particulars: Mus musculus, 72 h, read-out: Cytotoxicity IC50, ID-8.
Data set [3] has as its system WI-38 (human lung fibroblast, normal) cell line.
Data set [4] relates to ID-8 (murine ovarian cancer) cell line.
The subject of data set [5] is MX-1 (human breast cancer) cell line.

Read-outs that look alike come from different tables or passages of the source.

In general, IC50 refers to the concentration at which inhibition is half-maximal. `CC(=O)O[C@H]1C(=O)[C@@]2(C)[C@H]([C@H](OC(=O)c3ccccc3)[C@]3(O)C[C@H](OC(=O)[C@H](O)[C@@H](NC(=O)c4ccccc4)c4ccccc4)C(C)=C1C3(C)C)[C@]1(OC(C)=O)CO[C@@H]1C[C@@H]2O` [paclitaxel]: the values for the half-inhibitory concentration (IC50) (in the data set “in vitro”; in data set [1]; in data set [2]) were 175 ± 51.6 nM, 3.83 ± 0.59 nM and 21.2 ± 4.3 nM, respectively.

As for “SB-T-1214 [compound 4, reference compound]”, the IC50 turned out to be 4.14 ± 0.82 nM in data set [3], 1.89 ± 0.3 nM in data set [4] and 2.9 ± 0.47 nM in data set [5].
